Active and inactive are the calls of the source. The calls are words filed in the database; no cut-off is given here.
Assays:
[1] = biological target: T1, Mixed lineage kinase domain-like protein (Homo sapiens) (UniProt Q8NB16); experiment: Inhibition of human MLKL in human HT-29 cells assessed as inhibition of TSZ (TNFalpha, Smac mimetic and z-VAD-FMK) induced MLKL oligomerization at 5 uM and measured after 6 hrs by immunoblot assay; type: cell-based
T1 sequence (whole entry): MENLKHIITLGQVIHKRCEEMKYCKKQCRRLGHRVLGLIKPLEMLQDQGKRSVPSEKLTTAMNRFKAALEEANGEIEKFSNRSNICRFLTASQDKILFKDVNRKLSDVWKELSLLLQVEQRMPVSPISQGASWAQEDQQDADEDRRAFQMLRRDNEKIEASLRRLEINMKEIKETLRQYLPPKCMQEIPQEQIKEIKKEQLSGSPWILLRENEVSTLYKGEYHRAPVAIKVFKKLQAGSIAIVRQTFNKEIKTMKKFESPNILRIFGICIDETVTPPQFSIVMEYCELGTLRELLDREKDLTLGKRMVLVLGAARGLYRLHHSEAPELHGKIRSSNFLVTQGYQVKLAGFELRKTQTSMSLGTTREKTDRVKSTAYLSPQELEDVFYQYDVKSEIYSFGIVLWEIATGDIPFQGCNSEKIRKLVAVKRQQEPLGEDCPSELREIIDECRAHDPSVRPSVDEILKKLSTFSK

HT-29 [2] = experiment: Anti-necroptic activity in human HT-29 KO cells expressing MLKL K157A mutant assessed as inhibition of TSZ (TNFalpha, Smac mimetic and z-VAD-FMK) induced MLKL K157A mutant mediated necroptosis incubated for 24 hrs by celltiter-glo luminescent cell viability assay; type: functional, cell-based
HT-29 [3] = experiment: Anti-necroptic activity in human HT-29 cells assessed as inhibition of TSZ (TNFalpha, Smac mimetic and z-VAD-FMK) induced necroptosis incubated for 24 hrs by celltiter-glo luminescent cell viability assay; type: functional, cell-based; details: HT-29, 24 h
[4] = biological target: T1, Mixed lineage kinase domain-like protein (Homo sapiens); experiment: Inhibition of human MLKL in human HT-29 cells assessed as inhibition of TSZ (TNFalpha, Smac mimetic and z-VAD-FMK) induced MLKL oligomerization at 200 nM and measured after 6 hrs by immunoblot assay; type: cell-based
HT-29 [5] = experiment: Anti-necroptic activity in human HT-29 KO cells expressing MLKL F148A mutant assessed as inhibition of TSZ (TNFalpha, Smac mimetic and z-VAD-FMK) induced MLKL F148A mutant mediated necroptosis incubated for 24 hrs by celltiter-glo luminescent cell viability assay; type: functional, cell-based
[6] = GSH reactivity in DPBS buffer assessed as conjugation half life by UPLC-MS analysis; type: ADME; details: glutathione (GSH) in DPBS buffer
[7] = GSH reactivity in DPBS buffer assessed as fold decrease in reaction rate by UPLC-MS analysis relative to control; type: ADME
[8] = biological target: T1, Mixed lineage kinase domain-like protein (Homo sapiens); experiment: Displacement of biotin-tagged TCI3136 binding from human recombinant MLKL at Cys86 residues in human HT-29 cell lysate assessed as biotin labeled ligand-protein complex pull down at 5 uM preincubated with compound for 1 hr followed by probe addition for 1 hrs and further incubated with biotinylation of probe by click chemistry reaction for 2 hrs by pull-down assay; type: subcellular; details: time 4.0 hrs
[9] = biological target: T1, Mixed lineage kinase domain-like protein (Homo sapiens); experiment: Inhibition of human MLKL in human HT-29 cells assessed as inhibition of TSZ (TNFalpha, Smac mimetic and z-VAD-FMK) induced MLKL oligomerization at 1 uM and measured after 6 hrs by immunoblot assay; type: cell-based
[10] = biological target: T1, Mixed lineage kinase domain-like protein (Homo sapiens); experiment: Inhibition of human MLKL in human HT-29 cells assessed as inhibition of TSZ (TNFalpha, Smac mimetic and z-VAD-FMK) induced MLKL translocation to cell membrane at 1 uM and measured after 8 hrs by western blot analysis; type: cell-based
[11] = biological target: T1, Mixed lineage kinase domain-like protein (Homo sapiens); experiment: Inhibition of FLAG-tagged human MLKL in human HT-29 cells assessed as inhibition of TSZ (TNFalpha, Smac mimetic and z-VAD-FMK) induced MLKL phosphorylation by measuring dispersed phosphorylated MLKL in cytoplasm at 1 uM and measured after 8 hrs by Hoechst 33342 staining based immunofluorescence analysis; type: cell-based
[12] = biological target: Receptor-interacting serine/threonine-protein kinase 3 (Homo sapiens) (UniProt Q9Y572); experiment: Inhibition of full length RIP3 (unknown origin) assessed as substrate phosphorylation using MBP and ATP as substrate at 1 uM preincubated for 15 mins followed by substrate addition and measured after 90 mins by ADP-Glo luminescence assay; values are per cent of control; details: time 105.0 min
[13] = biological target: Receptor-interacting serine/threonine-protein kinase 3 (Homo sapiens) (UniProt Q9Y572); experiment: Inhibition of full length RIP3 (unknown origin) assessed as substrate phosphorylation using MBP and ATP as substrate at 10 uM preincubated for 15 mins followed by substrate addition and measured after 90 mins by ADP-Glo luminescence assay; values are per cent of control; details: time 105.0 min
[14] = biological target: T2, Receptor-interacting serine/threonine-protein kinase 1 (Homo sapiens) (UniProt Q13546); experiment: Inhibition of RIP1 (1 to 375 residues) (unknown origin) assessed as substrate phosphorylation using MBP and ATP as substrate at 1 uM preincubated for 15 mins followed by substrate addition and measured after 90 mins by ADP-Glo luminescence assay; values are per cent of control; details: time 105.0 min
T2 sequence (whole entry): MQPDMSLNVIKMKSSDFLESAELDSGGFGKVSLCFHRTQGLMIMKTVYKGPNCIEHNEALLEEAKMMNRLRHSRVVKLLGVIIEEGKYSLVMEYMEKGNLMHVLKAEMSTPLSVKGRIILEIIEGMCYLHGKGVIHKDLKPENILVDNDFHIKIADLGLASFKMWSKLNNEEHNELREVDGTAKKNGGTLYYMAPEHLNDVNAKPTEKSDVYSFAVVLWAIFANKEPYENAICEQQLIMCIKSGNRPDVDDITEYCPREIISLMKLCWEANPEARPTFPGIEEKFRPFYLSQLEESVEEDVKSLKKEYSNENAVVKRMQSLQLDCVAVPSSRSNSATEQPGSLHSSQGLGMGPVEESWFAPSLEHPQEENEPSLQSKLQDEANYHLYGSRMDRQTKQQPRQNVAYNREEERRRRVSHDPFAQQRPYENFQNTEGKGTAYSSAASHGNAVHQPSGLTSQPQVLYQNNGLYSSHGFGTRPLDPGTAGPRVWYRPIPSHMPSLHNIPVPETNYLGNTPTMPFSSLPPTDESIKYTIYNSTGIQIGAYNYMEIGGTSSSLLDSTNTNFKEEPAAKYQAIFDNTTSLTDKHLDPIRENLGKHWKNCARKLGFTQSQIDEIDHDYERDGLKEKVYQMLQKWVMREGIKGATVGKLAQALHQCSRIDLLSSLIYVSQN

[15] = biological target: T2, Receptor-interacting serine/threonine-protein kinase 1 (Homo sapiens); experiment: Inhibition of RIP1 (1 to 375 residues) (unknown origin) assessed as substrate phosphorylation using MBP and ATP as substrate at 10 uM preincubated for 15 mins followed by substrate addition and measured after 90 mins by ADP-Glo luminescence assay; values are per cent of control; details: time 105.0 min
HT-29 [16] = experiment: Anti-necroptic activity in human HT-29 cells assessed as inhibition of TSZ induced necroptosis incubated for 5 min followed by compound washout and further induced with TSZ by celltiter-glo luminescent cell viability assay; type: functional, cell-based; details: HT-29, 5 min
HT-29 [17] = experiment: Anti-necroptic activity in human HT-29 cells assessed as inhibition of TSZ induced necroptosis incubated for 1 hr followed by compound washout and further induced with TSZ by celltiter-glo luminescent cell viability assay; type: functional, cell-based; details: HT-29, 1 h
HT-29 [18] = experiment: Anti-necroptic activity in human HT-29 cells assessed as inhibition of TSZ induced necroptosis incubated for 3 hr followed by compound washout and further induced with TSZ by celltiter-glo luminescent cell viability assay; type: functional, cell-based; details: HT-29, 3 h
[19] = biological target: T1, Mixed lineage kinase domain-like protein (Homo sapiens); experiment: Covalent binding affinity to human recombinant MLKL at Cys86 residue assessed as covalent additive product formation by LC-MS/MS analysis
HT-29 [20] = experiment: Anti-necroptic activity in human HT-29 cells assessed as inhibition of TSZ induced necroptosis incubated for 3 hrs followed by TSZ stimulation by celltiter-glo luminescent cell viability assay; type: functional, cell-based; details: HT-29, 3 h
[21] = biological target: T2, Receptor-interacting serine/threonine-protein kinase 1 (Homo sapiens); experiment: Inhibition of TSZ (TNFalpha, Smac mimetic and z-VAD-FMK) induced RIPK1 phosphorylation in human HT-29 cells assessed as decrease in phosphorylated RIPK1 level incubated for 8 hrs by western blot analysis; type: cell-based
MEF = experiment: Anti-necroptic activity in mouse MEF cells assessed as inhibition of TSZ (TNFalpha, Smac mimetic and z-VAD-FMK) induced necroptosis incubated for 24 hrs by celltiter-glo luminescent cell viability assay; type: functional, cell-based
[22] = biological target: T1, Mixed lineage kinase domain-like protein (Homo sapiens); experiment: Inhibition of FLAG-tagged human MLKL in human HT-29 cells assessed as inhibition of TSZ (TNFalpha, Smac mimetic and z-VAD-FMK) induced MLKL phosphorylation at 1 uM and measured after 8 hrs by Hoechst 33342 staining based immunofluorescence analysis; type: cell-based

Sequence of Receptor-interacting serine/threonine-protein kinase 3 (Homo sapiens) (Q9Y572 whole entry, looked up, the tested form may be a part): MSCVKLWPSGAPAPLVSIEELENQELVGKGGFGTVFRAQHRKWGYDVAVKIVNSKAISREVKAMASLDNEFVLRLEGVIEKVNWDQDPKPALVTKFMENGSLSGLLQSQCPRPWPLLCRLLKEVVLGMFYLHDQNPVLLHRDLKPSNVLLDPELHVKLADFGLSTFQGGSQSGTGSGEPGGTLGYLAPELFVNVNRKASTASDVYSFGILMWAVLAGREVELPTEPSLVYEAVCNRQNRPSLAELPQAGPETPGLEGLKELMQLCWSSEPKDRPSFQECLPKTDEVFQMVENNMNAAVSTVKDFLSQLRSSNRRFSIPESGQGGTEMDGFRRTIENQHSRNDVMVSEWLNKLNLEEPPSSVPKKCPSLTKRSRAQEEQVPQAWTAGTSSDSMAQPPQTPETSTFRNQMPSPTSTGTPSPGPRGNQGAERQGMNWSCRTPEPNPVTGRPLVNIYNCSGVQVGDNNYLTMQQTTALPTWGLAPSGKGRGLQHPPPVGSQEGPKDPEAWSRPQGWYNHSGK

Row | SMILES | inhibition (HT-29 [2]) | EC50 (HT-29 [3]) [nM] | fold change (FC) [7] | Activity [8] | inhibition [9] | inhibition [10] | residual activity [12] [%] | residual activity [13] [%] | residual activity [15] [%] | further results
1 | COc1nccnc1NSc1ccc(NC(=O)/C=C/c2ccc([N+](=O)[O-])s2)cc1 | Active |  |  |  |  |  |  |  |  | inhibition [1]: Active
2 | Cn1c(=O)c2c(nc(S(C)(=O)=O)n2C)n(CC#Cc2cccc(O)c2)c1=O | Active | 2 |  |  |  |  |  |  |  | inhibition [4]: Active; inhibition (HT-29 [5]): Active; half-life [6]: 20 min
3 | COc1cccn(Cc2cc(C#CCn3c(Cl)c(NC(=O)CCc4ccc(C)cc4)c(=O)n(C)c3=O)ccc2O)c1=O | Active | 31 | 150 | Active | Active | Active | 110 | 110 | 101 | inhibition [11]: Active; residual activity [14]: 117%
4 | Cc1ccc(CCC(=O)Nc2c(Cl)n(CC#Cc3ccc(O)c(Cn4ccccc4=O)c3)c(=O)n(C)c2=O)cc1 | Active | 82 | 150 | Active | Active | Active | 100 | 99.8 | 82.6 | EC50 (HT-29 [16]): > 10000 nM; EC50 (HT-29 [17]): 584 nM; EC50 (HT-29 [18]): 180 nM; Activity [19]: Active; EC50 (HT-29 [20]): 188 nM
5 | CCC(C)(C)C(=O)N(O)Cc1ccccc1 |  |  |  |  |  |  |  |  |  | inhibition [21]: Active; inhibition (MEF): Active; inhibition [22]: Active

From ChEMBL document CHEMBL5108050, “Discovery of a New Class of Uracil Derivatives as Potential Mixed Lineage Kinase Domain-like Protein (MLKL) Inhibitors” (J Med Chem, 2022)
